“And” between values parts separate entries of the source, which are not always exact repeats. Equal entries are not always repeated. The source made the active and inactive calls.
What was measured:
Cytochrome P450 3A4 = Cytochrome P450 3A4 (Homo sapiens, UniProt P08684);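 further: CYP3A4 tested as one member of a cytochrome P450 panel screen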
[1] = cytotoxicity toward NIH3T3 fibroblasts, dose response, counter-screen, cell-based, ATP luminescence, mouse fibroblasts (AID 2010); type: functional;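 further: cells exposed to compound for about 90 hours before reading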
[2] = inhibitors of intracellular T. cruzi replication, confirmation, NIH3T3 host cells, beta-gal luminescence (AID 2044); type: functional, cell-based;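 further: intracellular parasites grown in NIH/3T3 mouse fibroblasts as host cells; luminescent beta-galactosidase reporter signal from transgenic T. cruzi replicating inside host cells; inhibitors lower the luminescence signal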
Cytochrome P450 2D6 = Cytochrome P450 2D6 (Homo sapiens, UniProt P10635);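 further: CYP2D6 member of a cytochrome P450 panel assay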
Cytochrome P450 2C9 = Cytochrome P450 2C9 (Homo sapiens, UniProt P11712)
Cytochrome P450 1A2 = target: T1, Cytochrome P450 1A2 (Homo sapiens, UniProt P05177);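 further: PubChem cytochrome P450 panel assay, CYP1A2 panel member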
T1 sequence (P05177 whole entry): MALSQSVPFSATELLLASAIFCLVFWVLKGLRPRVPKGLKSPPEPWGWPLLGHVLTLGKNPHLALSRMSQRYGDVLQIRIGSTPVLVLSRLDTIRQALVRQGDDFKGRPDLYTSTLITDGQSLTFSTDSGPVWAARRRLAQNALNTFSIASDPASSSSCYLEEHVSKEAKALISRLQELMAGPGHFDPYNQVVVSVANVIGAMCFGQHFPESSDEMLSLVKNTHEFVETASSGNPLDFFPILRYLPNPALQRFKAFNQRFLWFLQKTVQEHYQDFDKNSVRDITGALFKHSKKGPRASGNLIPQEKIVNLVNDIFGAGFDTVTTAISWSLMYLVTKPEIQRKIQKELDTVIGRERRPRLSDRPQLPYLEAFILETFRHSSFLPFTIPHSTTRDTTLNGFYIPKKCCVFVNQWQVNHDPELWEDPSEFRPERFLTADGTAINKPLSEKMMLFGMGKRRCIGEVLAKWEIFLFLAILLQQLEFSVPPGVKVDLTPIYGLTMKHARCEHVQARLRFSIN

Streptococcus = test: Group A Streptococcus viability loss, dose response, counter-screen for streptokinase expression inhibitor project, luminescence, BacTiterGlo (AID 1915); type: functional, organism-based;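 further: potency for reduction of bacterial viability or growth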
[3] = tested on: Streptococcus sp. 'group A'; test: growth inhibition of control SK(-) GAS strain, dose response, counter-screen for streptokinase expression inhibitor project, luminescence, kanamycin, BacTiterGlo, confirmation (AID 1900); type: functional, organism-based
[4] = target: T2, Corticotropin-releasing factor receptor 2/Corticotropin-releasing factor-binding protein (Homo sapiens, UniProt P24387+Q13324); test: activators of CRF receptor 2 with binding protein – uHTS hits, confirmation (AID 602473); type: functional; conditions: read-out: EC50_Mean
T2 sequence (Q13324 whole entry): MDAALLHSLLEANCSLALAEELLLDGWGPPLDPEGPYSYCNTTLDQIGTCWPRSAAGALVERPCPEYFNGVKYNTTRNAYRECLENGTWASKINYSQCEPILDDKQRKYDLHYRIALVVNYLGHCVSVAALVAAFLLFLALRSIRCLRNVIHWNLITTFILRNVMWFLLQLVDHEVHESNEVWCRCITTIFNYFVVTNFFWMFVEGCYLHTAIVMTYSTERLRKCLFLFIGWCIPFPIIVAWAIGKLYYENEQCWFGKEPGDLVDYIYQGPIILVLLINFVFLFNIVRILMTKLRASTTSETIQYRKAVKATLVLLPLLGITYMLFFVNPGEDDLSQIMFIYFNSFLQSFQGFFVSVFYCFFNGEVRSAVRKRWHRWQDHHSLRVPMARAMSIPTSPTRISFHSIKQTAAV
T2 sequence (P24387 whole entry): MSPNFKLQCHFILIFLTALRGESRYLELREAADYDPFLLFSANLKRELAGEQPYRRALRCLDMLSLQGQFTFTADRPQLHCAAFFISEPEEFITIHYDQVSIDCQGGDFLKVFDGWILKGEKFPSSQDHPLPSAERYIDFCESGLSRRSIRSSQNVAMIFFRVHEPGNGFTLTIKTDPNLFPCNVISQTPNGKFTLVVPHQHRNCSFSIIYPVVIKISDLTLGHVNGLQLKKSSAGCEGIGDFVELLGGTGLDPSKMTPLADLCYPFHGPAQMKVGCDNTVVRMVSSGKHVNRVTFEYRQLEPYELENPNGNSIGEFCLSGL

Chain of Cytochrome P450 2C9 (P11712 whole entry): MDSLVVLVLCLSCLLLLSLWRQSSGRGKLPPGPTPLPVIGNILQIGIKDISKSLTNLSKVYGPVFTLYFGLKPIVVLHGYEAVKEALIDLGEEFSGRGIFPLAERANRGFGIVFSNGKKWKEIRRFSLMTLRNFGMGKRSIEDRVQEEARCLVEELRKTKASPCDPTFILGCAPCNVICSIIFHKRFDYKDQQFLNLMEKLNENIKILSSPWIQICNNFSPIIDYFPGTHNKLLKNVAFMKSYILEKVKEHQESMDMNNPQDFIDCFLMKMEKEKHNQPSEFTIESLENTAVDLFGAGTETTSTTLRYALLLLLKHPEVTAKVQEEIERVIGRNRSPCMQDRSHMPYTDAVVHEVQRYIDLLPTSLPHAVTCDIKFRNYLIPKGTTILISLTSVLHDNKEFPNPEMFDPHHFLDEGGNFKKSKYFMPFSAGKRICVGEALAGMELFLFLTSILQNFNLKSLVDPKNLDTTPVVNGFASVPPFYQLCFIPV
Chain of Cytochrome P450 3A4 (P08684 whole entry): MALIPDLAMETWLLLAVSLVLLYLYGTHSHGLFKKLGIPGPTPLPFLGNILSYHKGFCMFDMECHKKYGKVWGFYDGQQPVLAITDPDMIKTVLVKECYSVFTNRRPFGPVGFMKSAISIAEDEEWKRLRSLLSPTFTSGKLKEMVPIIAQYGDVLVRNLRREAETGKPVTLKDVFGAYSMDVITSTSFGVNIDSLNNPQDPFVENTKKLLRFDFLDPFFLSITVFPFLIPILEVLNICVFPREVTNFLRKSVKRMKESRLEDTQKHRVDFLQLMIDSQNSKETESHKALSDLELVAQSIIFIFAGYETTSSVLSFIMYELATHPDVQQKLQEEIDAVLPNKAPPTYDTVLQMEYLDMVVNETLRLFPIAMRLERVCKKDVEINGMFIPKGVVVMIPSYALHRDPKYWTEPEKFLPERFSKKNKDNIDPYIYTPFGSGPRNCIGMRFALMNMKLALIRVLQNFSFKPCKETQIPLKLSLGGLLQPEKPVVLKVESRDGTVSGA
Chain of Cytochrome P450 2D6 (P10635 whole entry): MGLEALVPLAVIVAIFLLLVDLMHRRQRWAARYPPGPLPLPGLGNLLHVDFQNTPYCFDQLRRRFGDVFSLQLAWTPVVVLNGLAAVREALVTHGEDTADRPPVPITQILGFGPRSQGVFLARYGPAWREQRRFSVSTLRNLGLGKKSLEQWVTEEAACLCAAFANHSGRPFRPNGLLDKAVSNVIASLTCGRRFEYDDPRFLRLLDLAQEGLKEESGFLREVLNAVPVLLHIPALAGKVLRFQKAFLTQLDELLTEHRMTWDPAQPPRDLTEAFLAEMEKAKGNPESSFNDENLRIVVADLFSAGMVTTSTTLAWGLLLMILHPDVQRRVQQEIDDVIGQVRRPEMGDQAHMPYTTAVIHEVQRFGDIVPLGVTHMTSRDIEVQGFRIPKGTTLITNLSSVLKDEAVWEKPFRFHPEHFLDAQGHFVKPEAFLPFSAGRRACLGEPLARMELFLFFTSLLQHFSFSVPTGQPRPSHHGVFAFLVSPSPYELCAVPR

With `Cc1nn(Cc2ccc(Cl)cc2)c(C)c1NC(=O)Cn1nc([N+](=O)[O-])c(Cl)c1C` the AC50 (Cytochrome P450 3A4) was 1.12 µM (inconclusive).

For `O=C(Nc1ncc(Cc2ccccc2Cl)s1)c1ccc(-c2cccc([N+](=O)[O-])c2)o1`, the EC50 [1] was > 60 µM (inconclusive) and the EC50 [2] was 1.57 µM (active).

With `O=C(NC(N1CCOCC1)C(Cl)(Cl)Cl)c1cc([N+](=O)[O-])cc([N+](=O)[O-])c1` (stereo unspecified) the EC50 [1] was > 60 µM (not active) and the EC50 [2] was 0.9 µM (active).

With `CCN1CCN(c2cc(C)c3cc(NC(=O)Cc4ccccc4OC)ccc3n2)CC1` the EC50 [1] was > 60 µM (not active) and the EC50 [2] was 1.14 µM (active).

With `Clc1ccc(-c2noc(CN3CCCCC3)n2)cc1` the AC50 (Cytochrome P450 2D6) was 3.16 µM (inconclusive).

For `CCCC(=O)Nc1ccc(C(=O)NNC(=S)NC(=O)c2cccs2)cc1`, the AC50 (Cytochrome P450 2D6) was 39.8 µM (inconclusive).

In the case of `Cc1cnc(CNc2nc(-c3ccc(N(C)C)cc3)nc3ccccc23)cn1`, the AC50 (Cytochrome P450 2D6) is reported as 39.8 µM (inconclusive).

For `CCOC(=O)CN(C(=O)CCC(=O)Nc1cc(C)on1)C(C(=O)NC1CCCC1)c1cccnc1` (stereo unspecified), the AC50 (Cytochrome P450 2C9) was 17.8 µM (inconclusive).

With `CCCc1c(O)c2ccccc2n(-c2ccccc2)c1=O` the AC50 (Cytochrome P450 3A4) was 22.4 µM (inconclusive) and the AC50 (Cytochrome P450 2C9) was 12.6 µM (inconclusive).

With `Cc1cccc(C(CC(=O)N2CCCC2)c2ccccc2)c1O` (stereo unspecified) the AC50 (Cytochrome P450 1A2) was 15.8 µM (inconclusive).

With `CC(C)CCc1noc(CN(C)CC2CCN(Cc3ccccc3)CC2)n1` the EC50 [1] was > 60 µM (not active) and the EC50 [2] was 1.47 µM (active).

In the case of `COC(=O)c1cc(NC(=O)CC2NC3CCCCC3NC2=O)cc(C(=O)OC)c1` (stereo unspecified), the AC50 (Cytochrome P450 2C9) is reported as 12.6 µM (inconclusive).

For `O=c1onc(-c2cccs2)n1Cc1ccccc1`, the AC50 (Cytochrome P450 2C9) was 31.6 µM (inconclusive).

For `CCOc1ccc(-n2c(SCC(=O)Nc3ccc(OC)cc3OC)nc3c(c2=O)SCC3)cc1`, the AC50 (Cytochrome P450 3A4) was 15.8 µM (inconclusive).

In the case of `COc1cccc(CNc2ccc(F)c(Cl)c2)c1O`, the AC50 (Cytochrome P450 3A4) is reported as 35.5 µM (inconclusive).

For `CCCCCCCCCn1cc(C(C)=O)c(=O)[nH]c1=O`, the AC50 (Cytochrome P450 1A2) was 14.1 µM (inconclusive).

For `Clc1ccccc1-c1ccc2ncnc(NC3CCNCC3)c2c1`, the AC50 (Cytochrome P450 2D6) was 20 µM (inconclusive) and the AC50 (Cytochrome P450 1A2) was 15.8 µM (inconclusive).

In the case of `Nc1nc(Nc2ccccc2)nc2c1ncn2[C@@H]1O[C@@H](CO)[C@H](O)[C@@H]1O`, the AC50 (Cytochrome P450 1A2) is reported as 31.6 µM (inconclusive).

In the case of `O=C(Oc1ccccc1)N1CCC2(CCCN(C(c3ccccc3)c3ccccc3)C2)CC1`, the AC50 (Cytochrome P450 2C9) is reported as 2 µM (inconclusive).

For `O=C(O)c1ccccc1C1c2ccccc2Oc2ccccc21`, the AC50 (Cytochrome P450 2C9) was 3.98 µM (inconclusive).

In the case of `O=C(OC(c1ccccc1)c1nccc2ccccc12)c1cc([N+](=O)[O-])cc([N+](=O)[O-])c1` (stereo unspecified), the EC50 [1] is reported as > 60 µM (not active) and the EC50 [2] is reported as 1.01 µM (active).

In the case of `CCCCC[C@H](O)c1cccc(OCc2ccc3ccccc3n2)c1`, the AC50 (Cytochrome P450 2C9) is reported as 31.6 µM (inconclusive).

In the case of `Nc1nonc1-c1nc2ccccc2n1CC(=O)N/N=C\c1ccc(-c2ccc(Cl)cc2)o1`, the EC50 (Streptococcus) is reported as 2.38 µM (active) and the EC50 [3] is reported as 1.02 µM (active).

For `CCCCCn1/c(=N/C(=O)c2cccnc2)c(C#N)cc2c(=O)n3cccc(C)c3nc21`, the EC50 [4] was > 53 µM (inactive).

With `CCOC(=O)c1cc2c(=O)n3ccccc3nc2n(C(C)C)/c1=N/C(=O)c1c(-c2c(F)cccc2Cl)noc1C` the EC50 [1] was > 60 µM (inconclusive) and the EC50 [2] was 2.18 µM (active).

For `Cc1nn(-c2ccccc2)c(N2CCCC2)c1/C=N/NC(=O)c1cc(-c2ccccc2)nc2ccccc12`, the EC50 [1] was > 60 µM (not active) and the EC50 [2] was 1.96 µM (active).

In the case of `CCCn1c(=O)c2[nH]c(C3CCCC3)nc2n(CCCOC(=O)c2ccc(S(=O)(=O)F)cc2)c1=O`, the AC50 (Cytochrome P450 3A4) is reported as 3.16 µM (inconclusive) and the AC50 (Cytochrome P450 2C9) is reported as 3.16 µM (inconclusive).

With `NCCNS(=O)(=O)c1cccc2cnccc12` the AC50 (Cytochrome P450 3A4) was 20 µM (inconclusive) and 39.8 µM (inconclusive) and the AC50 (Cytochrome P450 2D6) was 7.94 µM (inconclusive) and 25.1 µM (inconclusive).

With `c1ccc([C@@H]2CN3CCSC3=N2)cc1` [DEXAMISOLE] the AC50 (Cytochrome P450 2D6) was 31.6 µM (inconclusive) and 10 µM (inconclusive) and 20 µM (inconclusive).

Source: ChEMBL document CHEMBL1201862, “PubChem BioAssay data set” (2004)
